# Measurements published in paper PMC8426295, “Cytotoxic and radiosensitising effects of a novel thioredoxin reductase inhibitor in breast cancer” (Investigational New Drugs, 2021).
# Marks after values point to notes of the source that are not given here.
# Tests used:
# Assay type in all cases: cell-based, human
# MDA-MB-436 cells = test: Drug-radiation combination clonogenic survival (LQ model)
# Description: (§1) 5 × 10^5 cells were seeded in T25 cm^2 tissue culture flasks and incubated overnight. The sub-confluent cells were then treated either for 4-h or 48-h with IQ9 (0–5000 nM) or doxorubicin (10–20 nM). Following drug treatment, cells were collected, counted, and plated at low-density, in triplicate, and incubated, at 37 °C, 5% CO2, undisturbed, for 2 weeks for TNBC cells and 3 weeks for luminal cells, for colony formation. Colonies were fixed (50% methanol in 0.9% saline solution) and stained (0.5% crystal violet solution). Colonies consisting of more than 50 cells were confirmed by microscopy and scored as survivors. The plating efficiency (PE) was calculated as numbers of colonies formed/ numbers of cells plated. For single-agent treatment, drug or radiation, the surviving fraction was calculated as: number of colonies formed/ (numbers of cell plated x PE). For drug radiation combination experiments, cytotoxicity of drug treatment was accounted for by calculating surviving fraction as: number of colonies formed from each radiation dose/ (number of cells plated × PE × surviving fraction of drug-treated cell at 0 Gy).
# (§2) Sub-confluent cells were irradiated with a dose of 2, 4, 6, or 8 Gy (at a dose rate of 0.87 Gy/min) using an RS225 x-ray cabinet irradiation system (Xstrahl Limited, UK), fitted with a 0.5 mm Cu filter and run at 195 kV, 10 mA. Following irradiation, cells were immediately trypsinised and plated for clonogenic survival. Sham-irradiated cells were used as controls. Dose-response curves were plotted as a function of radiation dose on a log/ linear plot. Clonogenic survival calculation software (CS-CAL), developed by the Translational Radiation Oncology Group, German Cancer Research Centre was used to fit survival curves to the linear-quadratic (LQ) model (equation: […] ). The software can be accessed online at http://angiogenesis.dkfz.de/oncoexpress/software/cs-cal/. For drug-radiation combinations, cells were treated with 1000 nM IQ9 (2500 nM for T47D) for 4 h followed by irradiation (0–8 Gy). For 48 h drug treatment experiments, MDA-MB-231 and T47D cells were treated with clonogenic IC50 concentrations of IQ9 before irradiation. The sensitiser enhancement ratio (SER), calculated by dividing the X-ray dose causing 1% cell survival in the absence of drug treatment by the X-ray dose leading to 1% cell survival in the presence of drug treatment, was used to evaluate the degree of radiosensitisation.
# (§3) IC50 values were calculated from dose-response curves using an SPSS regression model between inhibition ratios and concentration gradients. The radiobiological parameters: alpha (α), beta (β), α/β ratio, and surviving fraction at 2 Gy (SF2) were extracted from the survival curves fitted using the LQ model. All results are presented as average ± standard deviation (SD) of three independent experiments, each performed in triplicate. Data were analysed using the student T-test and ANOVA one-way test. Statistical analysis was performed using SPSS 23.0 software. Values of P < 0.05 were considered statistically significant.
# MDA-MB-468 cells = test: as above
# Description: as §1, §2, §3
# MCF-7 cells = test: as above; conditions: 1000 nM IQ9 for 4 h followed by irradiation
# Description: as §1, §2, §3
# T47D cells = test: as above; conditions: for SER (sensitiser enhancement ratio): at 1% cell survival
# Description: as §1, §2, §3
# MDA-MB-231 cells = test: as above; conditions: for SER (sensitiser enhancement ratio): at 1% cell survival
# Description: as §1, §2, §3
# Trx = test: Western blotting of Trx expression; conditions: 48 h
# Description: Cells were treated with IQ9 (clonogenic IC50 concentrations) for 48 h, harvested, and resuspended in 1 mL of RIPA buffer (Sigma, UK) supplemented with 1X Halt phosphatase inhibitor cocktail, protease inhibitor cocktail, and EDTA. Samples were run on an SDS-polyacrylamide gel and transferred onto a 0.2 μm nitrocellulose membrane (GE Healthcare). The membrane was then blocked using 5% milk powder in 0.1% PBS/ Tween20, for 1 h at room temperature and then incubated with primary antibody overnight at 4 °C. Anti-β-actin antibody (Abcam) was used as a loading control. Primary antibodies were rabbit anti-human Trx (Abcam; 1:1000), mouse anti-human antibody (Abcam; 1:500), and rabbit anti-human Txnip (Abcam; 1:500). For Trx and Txnip, bands were detected using an Odyssey FC Imager (LI-COR). Images were obtained and fluorescence intensity quantified using Image Studio Software (version 4). The signals for Trx and Txnip were normalised against β-actin. For TrxR, bands were detected using an Amersham Enhanced Chemiluminescence system (GE Healthcare).
# [1] = 1000 nM IQ9 for 4 h followed by irradiation
# [2] = 1000 nM IQ9 for 4 h followed by irradiation, at 1% cell survival
# [3] = IQ9 for 4 h followed by irradiation, vs control
# [4] = 2500 nM IQ9 for 4 h followed by irradiation
# [5] = IQ9 exposure 48 h before irradiation
# [6] = clonogenic IC50 concentration of IQ9 for 48 h before irradiation
structure (smiles),measurement,setting,value
COC1=CC(=O)c2c(c(COc3c(F)cc(F)cc3F)cn2C)C1=O [IQ9],SF2 (surviving fraction at 2 Gy),MDA-MB-436 cells; [1],0.07 ± 0.01
same,α,MDA-MB-436 cells; [1],1.33 ± 0.06* Gy^−1
same,α/β Ratio,MDA-MB-436 cells; [1],66.53 ± 2.89
same,β,MDA-MB-436 cells; [1],0.02 ± 0.00 Gy^−2
same,SER (sensitiser enhancement ratio),MDA-MB-436 cells; [2],1.43
same,factor of increase in α,MDA-MB-436 cells; [3],1.8
same,SF2 (surviving fraction at 2 Gy),MDA-MB-468 cells; [1],0.19 ± 0.01
same,α,MDA-MB-468 cells; [1],0.85 ± 0.08* Gy^−1
same,α/β Ratio,MDA-MB-468 cells; [1],85.00 ± 8.18
same,β,MDA-MB-468 cells; [1],0.01 ± 0.00 Gy^−2
same,SER (sensitiser enhancement ratio),MDA-MB-468 cells; [2],1.30
same,factor of increase in α,MDA-MB-468 cells; [3],1.4
same,SF2 (surviving fraction at 2 Gy),MCF-7 cells,0.24 ± 0.10
same,α,MCF-7 cells,0.58 ± 0.18 Gy^−1
same,α/β Ratio,MCF-7 cells,7.25 ± 3.19
same,β,MCF-7 cells,0.08 ± 0.02 Gy^−2
same,SER (sensitiser enhancement ratio),MCF-7 cells; at 1% cell survival,1.08
same,SF2 (surviving fraction at 2 Gy),T47D cells; [4],0.45 ± 0.02
same,α,T47D cells; [4],0.47 ± 0.04 Gy^−1
same,α/β Ratio,T47D cells; [4],15.66 ± 1.17
same,β,T47D cells; [4],0.03 ± 0.00 Gy^−2
same,SER (sensitiser enhancement ratio),T47D cells; [4],1.00
same,radiosensitivity (in words),T47D cells; [5],no significant increase in radiosensitivity
same,radiosensitisation (in words),T47D cells; IQ9 for 4 h followed by irradiation,no altered radiosensitisation
same,SF2 (surviving fraction at 2 Gy),T47D cells; [6],0.31 ± 0.04
same,α,T47D cells; [6],0.40 ± 0.12 Gy^−1
same,α/β Ratio,T47D cells; [6],7.27 ± 5.53
same,β,T47D cells; [6],0.05 ± 0.02 Gy^−2
same,SER (sensitiser enhancement ratio),T47D cells; [6],1.00
same,SF2 (surviving fraction at 2 Gy),MDA-MB-231 cells; [1],0.21 ± 0.02
same,α,MDA-MB-231 cells; [1],0.70 ± 0.17 Gy^−1
same,α/β Ratio,MDA-MB-231 cells; [1],11.67 ± 3.63
same,β,MDA-MB-231 cells; [1],0.06 ± 0.01 Gy^−2
same,SER (sensitiser enhancement ratio),MDA-MB-231 cells; [1],1.20
same,radiosensitivity (in words),MDA-MB-231 cells; [5],no significant increase in radiosensitivity
same,SF2 (surviving fraction at 2 Gy),MDA-MB-231 cells; [6],0.22 ± 0.08
same,α,MDA-MB-231 cells; [6],0.85 ± 0.04 Gy^−1
same,α/β Ratio,MDA-MB-231 cells; [6],25.60 ± 4.62
same,β,MDA-MB-231 cells; [6],0.03 ± 0.01 Gy^−2
same,SER (sensitiser enhancement ratio),MDA-MB-231 cells; [6],1.07
same,expression of Trx,"Trx; MDA-MB-231, clonogenic IC50 concentration, P = 0.003",increased expression
same,expression of Trx,"Trx; the other four cell lines (MDA-MB-468, MDA-MB-436, T47D, MCF-7), clonogenic IC50 concentration",no effect
